How the values were obtained:
[1] = system: patients with mild to moderate dementia of the Alzheimer's type; test: MD-10: randomized, double-blind, placebo-controlled evaluation of memantine; assay type: in vivo, human; details: MD-10, week 24, ITT LOCF
Method: MD-10: MD-10 was a randomized, double-blind, placebo-controlled evaluation of the safety and efficacy of memantine in patients with mild to moderate dementia of the Alzheimer's type. The primary endpoints for MD-10 were ADAS-cog and CIBIC-plus. Other endpoints for MD-10 included ADCS-ADL, NPI, and RUD (Resource Utilization in Dementia).
(§1) The five memantine trials were evaluated using an analysis of patient for a population having an NPI agitation subscale score of >4 ([…]) and for a population having an NPI score of <4 ([…]). For each NPI population, changes in SIB, ADAS-cog and/or ADL were calculated using the least square (LS) mean difference for memantine and placebo-treated patients. Similarly, for each NPI population, the raw mean difference between memantine and placebo was calculated for the CIBIC-plus results.
(§2) For primary efficacy measurements the comparison between memantine and placebo was performed using two-way analysis of covariance (ANCOVA) with treatment group and center as the two factors, and the baseline scores as covariate. Both the LOCF imputation approach and the OC approach are performed at the end of the trials.
(§3) For secondary efficacy measurements, the comparison between memantine and placebo was performed using two-way analysis of covariance (ANCOVA) with treatment group and center as the two main effects, and the baseline scores as covariate. Descriptive statistics were calculated by Visit. Again, all analyses were performed using both the LOCF imputation approach and the OC approach.
(§4) Results of ANCOVA were summarized using least square (LS) means for each treatment group with corresponding standard error (SE), the between-treatment (2-24 week) difference in the least square means with corresponding 95% confidence interval, and the between-treatment p-value corresponds to the SAS Type III sum of squares.
(§5) In data Tables 5-19, the Overall Memantine versus Placebo columns of studies MD-01, MD-02, MD-10 and MD-12 used an ANCOVA model with baseline total score as covariate, treatment and study center as factors for SIB, ADL or ADAS-cog; CMH test controlling for study center for CIBIC-Plus. For MZ-9605, results are based on arithmetic means and the Wilcoxon-Mann-Whitney test. The Agitation score columns/NPI/antipsychotics columns, except CIBIS-Plus, calculated the p-values and LS mean differences within the subgroups from an ANCOVA model with baseline total score as covariate, subgroup (yes/no), treatment, and treatment by subgroup interactions as factors. For CIBIS-Plus, the p-values and raw mean differences within a subgroup were calculated using the CMH test controlling for study center.
(§6) Patients in the same five trials described above were stratified into two sub-groups in a second analysis, those with an NPI total score in the top quartile (≧75%), or those more severely impaired at baseline, and those with an NPI total score <75%, or less severe impairment at baseline. Similar to as in Example 1, results were evaluated using the change in SIB (cognitive endpoint), and change in ADCS-ADL (functional endpoint), using the LS mean. The change in the CIBIC-plus (global endpoint) was assessed using the raw mean.
(§7) A sub-population of patients from the five trials, MD-01, MD-02, MD-10, MD-12, and MZ-9605, were concurrently taking antipsychotics.

[2] = system: patients with mild to moderate dementia of the Alzheimer's type on stable chronic doses of a cholinesterase inhibitor; test: MD-12: randomized, double-blind, placebo-controlled evaluation of memantine added to stable cholinesterase inhibitor; assay type: in vivo, human; details: MD-12, on cholinesterase inhibitor, week 24, ITT LOCF
Method: The primary endpoints for MD-12 were ADAS-cog and CIBIC-plus. Other endpoints for MD-12 included ADCS-ADL23, NPI, MMSE and RUD (Resource Utilization in Dementia).
as §1, §2, §3, §4, §5, §6, §7

[3] = NPI total score ≧=75% (top quartile)
[4] = antipsychotics usage “YES” (N = n)
[5] = antipsychotics usage “YES” (N = y)
[6] = baseline NPI agitation score <4
[7] = baseline NPI agitation score ≧=4
[8] = baseline NPI agitation score ≧=4, listed as MEM

## CC12CC3CC(C)(C1)CC(N)(C3)C2 [memantine, 1-amino-3,5-dimethyl adamantane]
[1]; NPI total score <75%
  ADAS-cog (change) LS Mean Diff., MEM v. PLA: −1.59
  ADAS-cog (change) mean: −0.08
  ADCS-ADL (change) LS Mean Diff., MEM v. PLA: 0.11
  ADCS-ADL (change) mean: −2.67
  CIBIC-PLUS Raw Mean Diff., MEM v. PLA: −0.32
  CIBIC-PLUS mean: 4.16
[1]; [3]
  ADAS-cog (change) LS Mean Diff., MEM v. PLA: −2.53
  ADAS-cog (change) mean: −1.18
  ADCS-ADL (change) LS Mean Diff., MEM v. PLA: 0.70
  ADCS-ADL (change) mean: −5.04
  CIBIC-PLUS Raw Mean Diff., MEM v. PLA: −0.3
  CIBIC-PLUS mean: 4.33
[1]; [4]
  ADAS-COG (change) LS Mean Diff., MEM v. PLA (second parameter of Table 19): 0.31
  ADAS-COG (change) mean (second parameter of Table 19): −2.69
  ADAS-cog (change) LS Mean Diff., MEM v. PLA: −1.93
  ADAS-cog (change) mean: −0.54
  CIBIC-PLUS Raw Mean Diff., MEM v. PLA: −0.29
  CIBIC-PLUS mean: 4.18
[1]; [5]
  ADAS-COG (change) LS Mean Diff., MEM v. PLA (second parameter of Table 19): −0.017
  ADAS-COG (change) mean (second parameter of Table 19): −7.95
  ADAS-cog (change) LS Mean Diff., MEM v. PLA: −0.74
  ADAS-cog (change) mean: 1.42
  CIBIC-PLUS Raw Mean Diff., MEM v. PLA: −0.51
  CIBIC-PLUS mean: 4.40
[1]; [6]
  ADAS-cog (change) LS Mean Diff., MEM v. PLA: −1.87
  ADAS-cog (change) mean: −0.49
  ADCS-ADL (change) LS Mean Diff., MEM v. PLA: 0.65
  ADCS-ADL (change) mean: −3
  CIBIC-PLUS Raw Mean Diff., MEM v. PLA: −0.36
  CIBIC-PLUS mean: 4.18
[1]; [7]
  ADAS-cog (change) LS Mean Diff., MEM v. PLA: −1.39
  ADAS-cog (change) mean: 0.86
  ADCS-ADL (change) LS Mean Diff., MEM v. PLA: −2.66
  ADCS-ADL (change) mean: −5.05
  CIBIC-PLUS Raw Mean Diff., MEM v. PLA: no difference
  CIBIC-PLUS mean: 4.36
[1]; [8]
  CIBIC-PLUS Raw Mean Diff., MEM v. PLA: 0.0
[1]; overall
  ADAS-cog (change) LS Mean Diff., MEM v. PLA: −1.90
  ADAS-cog (change) LS mean: −0.80
  ADCS-ADL (change) LS Mean Diff., MEM v. PLA: 0.10
  ADCS-ADL (change) LS mean: −2.90
  CIBIC-PLUS LS mean: 4.20
  CIBIC-PLUS Raw Mean Diff., MEM v. PLA: −0.30
[2]
  ADAS-COG (change) LS Mean Diff., MEM v. PLA (second parameter of Table 18): −0.24
[2]; NPI total score <75%
  ADAS-cog (change) LS Mean Diff., MEM v. PLA: −0.39
  ADAS-cog (change) mean: 0.53
  ADCS-ADL (change) LS Mean Diff., MEM v. PLA: −0.76
  ADCS-ADL (change) mean: −3.0
  CIBIC-PLUS Raw Mean Diff., MEM v. PLA: −0.041
  CIBIC-PLUS mean: 4.3
[2]; NPI total score <75%, listed as MEM
  CIBIC-PLUS Raw Mean Diff., MEM v. PLA: −0.1
[2]; [3]
  ADAS-cog (change) LS Mean Diff., MEM v. PLA: −1.53
  ADAS-cog (change) mean: 0.05
  ADCS-ADL (change) LS Mean Diff., MEM v. PLA: 2.0
  ADCS-ADL (change) mean: −2.8
  CIBIC-PLUS Raw Mean Diff., MEM v. PLA: 0.0
  CIBIC-PLUS mean: 4.6
[2]; NPI total score ≧=75% (top quartile), listed as MEM
  ADCS-ADL (change) LS Mean Diff., MEM v. PLA: 2.00
[2]; [4]
  ADAS-COG (change) mean (second parameter of Table 18): −2.5
  ADAS-cog (change) LS Mean Diff., MEM v. PLA: −0.74
  ADAS-cog (change) mean: 0.1
  CIBIC-PLUS Raw Mean Diff., MEM v. PLA: −0.06
  CIBIC-PLUS mean: 4.33
[2]; [5]
  ADAS-COG (change) LS Mean Diff., MEM v. PLA (second parameter of Table 18): .43
  ADAS-COG (change) mean (second parameter of Table 18): −6.0
  ADAS-cog (change) LS Mean Diff., MEM v. PLA: .4
  ADAS-cog (change) mean: 3.2
  CIBIC-PLUS Raw Mean Diff., MEM v. PLA: 0.1
  CIBIC-PLUS mean: 4.74
[2]; [6]
  ADAS-cog (change) LS Mean Diff., MEM v. PLA: −0.72
  ADAS-cog (change) mean: 0.35
  ADCS-ADL (change) LS Mean Diff., MEM v. PLA: −0.56
  ADCS-ADL (change) mean: −2.8
  CIBIC-PLUS Raw Mean Diff., MEM v. PLA: −0.1
  CIBIC-PLUS mean: 4.3
[2]; [7]
  ADAS-cog (change) LS Mean Diff., MEM v. PLA: −0.27
  ADAS-cog (change) mean: 0.98
  ADCS-ADL (change) LS Mean Diff., MEM v. PLA: 3.54
  ADCS-ADL (change) mean: −3.7
  CIBIC-PLUS Raw Mean Diff., MEM v. PLA: no difference
  CIBIC-PLUS mean: 4.7
[2]; [8]
  CIBIC-PLUS Raw Mean Diff., MEM v. PLA: 0.0
[2]; overall
  ADAS-cog (change) LS Mean Diff., MEM v. PLA: −0.70
  ADAS-cog (change) LS mean: 0.10
  ADCS-ADL (change) LS Mean Diff., MEM v. PLA: −0.20
  ADCS-ADL (change) LS mean: −3.00
  CIBIC-PLUS LS mean: 4.38
  CIBIC-PLUS Raw Mean Diff., MEM v. PLA: −0.04
